Assay results published in ChEMBL document CHEMBL1201862, “PubChem BioAssay data set” (2004).
Calls of active or inactive are those of the source. No stated cut-off is given here; in the data, actives have a measured IC50 and inactives only a lower limit.

Columns and labels:
Assay type in all cases: functional
[1] = molecular target: T1, Caspase-3 (Homo sapiens, UniProt P42574);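 further: Dose-response selectivity test against caspase-3 for candidate inhibitors of sentrin-specific proteases (SENPs)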
T1 sequence (P42574 whole entry): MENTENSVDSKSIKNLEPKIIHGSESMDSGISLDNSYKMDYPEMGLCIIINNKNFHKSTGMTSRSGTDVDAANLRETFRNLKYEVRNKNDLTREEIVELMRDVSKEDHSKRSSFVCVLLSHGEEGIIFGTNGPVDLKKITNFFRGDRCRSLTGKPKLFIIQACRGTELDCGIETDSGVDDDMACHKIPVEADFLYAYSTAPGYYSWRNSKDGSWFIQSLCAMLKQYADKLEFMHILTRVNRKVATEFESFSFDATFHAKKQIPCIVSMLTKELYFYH

[2] = molecular target: T2, Sentrin-specific protease 6 (Homo sapiens, UniProt Q9GZR1); assay: SAR Analysis of small molecule inhibitors of Sentrin-specific protease 6 (SENP6) using a Luminescent assay. [Related pubchem assays (depositor defined):AID2582, AID2599]
T2 sequence (Q9GZR1 whole entry): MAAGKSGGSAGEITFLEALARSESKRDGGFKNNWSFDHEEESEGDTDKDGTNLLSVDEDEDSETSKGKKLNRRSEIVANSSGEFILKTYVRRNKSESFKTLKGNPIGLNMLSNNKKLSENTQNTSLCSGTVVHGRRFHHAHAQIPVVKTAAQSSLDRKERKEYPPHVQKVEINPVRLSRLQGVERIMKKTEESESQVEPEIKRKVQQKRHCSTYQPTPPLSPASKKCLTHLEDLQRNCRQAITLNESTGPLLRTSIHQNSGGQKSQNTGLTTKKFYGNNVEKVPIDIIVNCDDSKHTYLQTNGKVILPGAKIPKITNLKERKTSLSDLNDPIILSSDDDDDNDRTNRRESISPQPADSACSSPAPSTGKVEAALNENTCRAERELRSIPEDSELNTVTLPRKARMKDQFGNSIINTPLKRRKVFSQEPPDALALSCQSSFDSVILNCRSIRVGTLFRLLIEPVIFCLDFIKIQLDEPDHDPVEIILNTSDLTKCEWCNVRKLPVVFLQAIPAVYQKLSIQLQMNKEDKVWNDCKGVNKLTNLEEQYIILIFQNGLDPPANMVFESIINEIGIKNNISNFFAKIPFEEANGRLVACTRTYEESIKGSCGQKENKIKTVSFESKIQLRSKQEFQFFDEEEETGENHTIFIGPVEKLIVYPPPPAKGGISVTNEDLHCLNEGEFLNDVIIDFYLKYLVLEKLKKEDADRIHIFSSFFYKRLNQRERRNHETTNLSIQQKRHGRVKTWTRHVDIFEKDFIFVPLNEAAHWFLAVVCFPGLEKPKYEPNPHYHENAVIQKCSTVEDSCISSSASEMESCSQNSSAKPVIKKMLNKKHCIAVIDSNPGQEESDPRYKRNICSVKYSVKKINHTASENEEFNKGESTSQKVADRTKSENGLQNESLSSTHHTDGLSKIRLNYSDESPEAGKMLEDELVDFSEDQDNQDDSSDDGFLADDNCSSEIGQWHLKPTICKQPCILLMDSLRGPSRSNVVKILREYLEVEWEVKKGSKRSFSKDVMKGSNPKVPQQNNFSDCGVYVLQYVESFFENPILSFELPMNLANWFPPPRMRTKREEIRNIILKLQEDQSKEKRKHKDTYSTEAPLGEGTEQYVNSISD

[3] = molecular target: T3, Apoptotic protease-activating factor 1 (Homo sapiens, UniProt O14727)
T3 sequence (O14727 whole entry): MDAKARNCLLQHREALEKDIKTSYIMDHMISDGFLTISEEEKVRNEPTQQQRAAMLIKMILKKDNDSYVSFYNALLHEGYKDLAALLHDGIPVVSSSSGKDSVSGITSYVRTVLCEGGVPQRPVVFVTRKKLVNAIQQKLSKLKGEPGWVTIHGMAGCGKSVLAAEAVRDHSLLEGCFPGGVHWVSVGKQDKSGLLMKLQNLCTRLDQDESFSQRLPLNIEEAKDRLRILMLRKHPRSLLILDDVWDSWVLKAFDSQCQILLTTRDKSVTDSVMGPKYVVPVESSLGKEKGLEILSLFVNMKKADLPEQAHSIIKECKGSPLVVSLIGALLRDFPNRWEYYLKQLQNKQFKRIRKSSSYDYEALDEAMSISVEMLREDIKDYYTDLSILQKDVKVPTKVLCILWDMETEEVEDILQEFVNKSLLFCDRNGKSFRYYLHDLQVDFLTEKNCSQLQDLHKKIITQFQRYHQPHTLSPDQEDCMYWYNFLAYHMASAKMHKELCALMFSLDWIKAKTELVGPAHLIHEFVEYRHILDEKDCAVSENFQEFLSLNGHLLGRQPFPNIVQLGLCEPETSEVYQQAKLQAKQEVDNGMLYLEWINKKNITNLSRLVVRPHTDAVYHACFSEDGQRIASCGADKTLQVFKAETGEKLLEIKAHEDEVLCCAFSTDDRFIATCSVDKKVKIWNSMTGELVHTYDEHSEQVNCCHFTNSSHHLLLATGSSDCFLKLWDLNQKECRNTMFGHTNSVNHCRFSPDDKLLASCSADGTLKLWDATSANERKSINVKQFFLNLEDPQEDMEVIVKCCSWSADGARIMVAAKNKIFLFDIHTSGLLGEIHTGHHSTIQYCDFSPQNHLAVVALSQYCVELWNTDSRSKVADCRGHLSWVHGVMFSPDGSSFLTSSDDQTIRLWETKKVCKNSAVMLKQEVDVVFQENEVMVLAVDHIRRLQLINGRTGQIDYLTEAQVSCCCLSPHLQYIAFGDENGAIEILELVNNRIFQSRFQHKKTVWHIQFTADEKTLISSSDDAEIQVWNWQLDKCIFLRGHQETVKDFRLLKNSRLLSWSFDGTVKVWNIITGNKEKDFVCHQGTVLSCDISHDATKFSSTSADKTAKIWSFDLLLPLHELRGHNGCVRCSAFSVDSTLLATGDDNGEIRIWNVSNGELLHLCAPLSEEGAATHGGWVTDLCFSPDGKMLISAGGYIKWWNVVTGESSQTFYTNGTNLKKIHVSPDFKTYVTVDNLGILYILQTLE

O=C(NN=c1c(=O)c2ccccc2c1=O)c1ccccc1
IC50 [1]: > 100 µM (inactive)
IC50 [2]: 5.31 µM (active)
IC50 [3]: 1.66 µM (active)
